# Patent USRE47193E1, “Selectively substituted quinoline compounds” (EISAI R&D MANAGEMENT CO., LTD., priority 2013, dated 2019)
# Read-outs that look alike come from different tables or passages of the source.
# Tests used:
# human TLR8 = molecular target: T1, human TLR8 (Homo sapiens, UniProt Q9NR97); experiment: HEK-293 human TLR8 NF-kappaB luciferase reporter assay (CL097); assay type: cell-based
# T1 construct: host or cells: HEK-293, then stably transfected with pNiFty2(NF-kappaB)-luciferase reporter
# T1 sequence (Q9NR97 27-1041): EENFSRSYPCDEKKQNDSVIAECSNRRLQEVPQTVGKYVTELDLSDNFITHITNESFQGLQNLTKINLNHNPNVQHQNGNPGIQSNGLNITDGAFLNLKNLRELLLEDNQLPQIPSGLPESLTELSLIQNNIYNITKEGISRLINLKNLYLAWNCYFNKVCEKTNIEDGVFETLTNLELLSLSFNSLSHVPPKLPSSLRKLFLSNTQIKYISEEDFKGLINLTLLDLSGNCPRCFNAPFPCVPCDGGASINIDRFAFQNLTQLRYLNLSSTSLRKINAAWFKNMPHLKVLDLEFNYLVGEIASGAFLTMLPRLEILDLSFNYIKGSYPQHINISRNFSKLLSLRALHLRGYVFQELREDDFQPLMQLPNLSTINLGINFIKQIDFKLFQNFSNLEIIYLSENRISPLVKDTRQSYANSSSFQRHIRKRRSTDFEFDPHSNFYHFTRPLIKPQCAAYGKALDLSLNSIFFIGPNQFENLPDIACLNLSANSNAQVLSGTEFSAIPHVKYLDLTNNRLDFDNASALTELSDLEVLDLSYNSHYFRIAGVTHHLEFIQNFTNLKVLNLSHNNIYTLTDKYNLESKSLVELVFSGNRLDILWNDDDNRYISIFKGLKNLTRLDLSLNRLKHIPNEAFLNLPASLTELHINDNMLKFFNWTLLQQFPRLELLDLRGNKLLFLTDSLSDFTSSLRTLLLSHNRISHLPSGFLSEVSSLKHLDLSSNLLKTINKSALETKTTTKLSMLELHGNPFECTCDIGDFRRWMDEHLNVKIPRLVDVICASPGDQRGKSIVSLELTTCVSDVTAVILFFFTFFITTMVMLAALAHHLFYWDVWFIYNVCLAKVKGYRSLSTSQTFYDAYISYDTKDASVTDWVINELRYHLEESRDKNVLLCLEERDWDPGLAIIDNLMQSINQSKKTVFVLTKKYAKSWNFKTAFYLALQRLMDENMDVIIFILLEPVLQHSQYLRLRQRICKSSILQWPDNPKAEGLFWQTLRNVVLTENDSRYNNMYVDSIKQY
# Protocol: Effects on mouse TLR7 were also compared. Cells were stimulated overnight with TLR7/8 agonist CL097 at pre-determined ED70-80: 3 ug/ml for HEK-hTLR7, 1.5 ug/ml for HEK-mTLR7 and 12 ug/ml for HEK-hTLR8, before reading luminescence intensity. Three tests were performed and IC50 value was determined using Graphpad Prism 6 nonlinear regression curve fit.
# HEK-293 cells (ATCC) were engineered to stably express a NF-kappaB transcription factor inducible E-selectin (ELAM-1) luciferase reporter derived from the plasmid pGL3 (Promega) containing base pairs −2241 bp to −254 bp from the promoter of the human E-selectin gene (Accession No. NM_000450). These cells were then subsequently engineered to stably and individually express human TLR4, TLR7 or TLR9 full-length ORF cDNAs. Human TLR4 cDNA (Accession No. NM_138554) was cloned into pcDNA 3.0 expression vector (Invitrogen). TLR4 transfected cells were also engineered to express human MD-2 co-receptor [MD-2 cDNA (Accession No. NM_015364) was cloned into the pEF-BOS vector] and were supplemented with 10 nM soluble CD14 (R&D Systems) in the media to optimize LPS responsiveness. Human TLR9 cDNA (Accession No. NM_017442) was cloned into the pBluescript II KS vector (Agilent). Human TLR7 cDNA (Accession No. NM_016562) was obtained from OriGene. HEK-293 cells stably expressing human TLR8 (Accession No. NM_138636) or mouse TLR7 (Accession No. NM_133211) were purchased from InvivoGen and were then stably transfected with pNiFty2(NF-kappaB)-luciferase reporter plasmid (InvivoGen). Each cell type was plated in Dulbecco's modified Eagle's medium (DMEM) containing 10% fetal bovine serum (FBS) at a density of 2.22×10^5 cells/ml into a 384-well plate and incubated for 2 days at 37° C., 5% CO2. Varying concentrations of antagonist compounds were then added. Cells were then incubated for another 30 minutes before adding the appropriate TLR agonist as follows (final concentrations indicated): lipopolysaccharide (LPS; Sigma) at 10 ng/ml for TLR4, CL097 (InvivoGen) at 3 ug/ml for human TLR7 and TLR8 and mouse TLR7, and CvG-2006-2A [sequence: […] (SEQ ID NO: 1) with phosphorothioate backbone, synthesized by Sigma-Aldrich] at 0.6 uM for TLR9.
# mouse TLR7 = molecular target: T2, mouse TLR7 (Mus musculus, UniProt P58681); experiment: Short-term in vivo (STIV) assay: oral dosing, R848 s.c., plasma IL-6; parameters: female BALB/c mice (Jackson Labs, Bar Harbor, Me.) were dosed by oral gavage; tissue Jackson Labs; host or cells: living female BALB/c mice; plasma IL-6 after s.c. R848
# T2 sequence (P58681 27-1050): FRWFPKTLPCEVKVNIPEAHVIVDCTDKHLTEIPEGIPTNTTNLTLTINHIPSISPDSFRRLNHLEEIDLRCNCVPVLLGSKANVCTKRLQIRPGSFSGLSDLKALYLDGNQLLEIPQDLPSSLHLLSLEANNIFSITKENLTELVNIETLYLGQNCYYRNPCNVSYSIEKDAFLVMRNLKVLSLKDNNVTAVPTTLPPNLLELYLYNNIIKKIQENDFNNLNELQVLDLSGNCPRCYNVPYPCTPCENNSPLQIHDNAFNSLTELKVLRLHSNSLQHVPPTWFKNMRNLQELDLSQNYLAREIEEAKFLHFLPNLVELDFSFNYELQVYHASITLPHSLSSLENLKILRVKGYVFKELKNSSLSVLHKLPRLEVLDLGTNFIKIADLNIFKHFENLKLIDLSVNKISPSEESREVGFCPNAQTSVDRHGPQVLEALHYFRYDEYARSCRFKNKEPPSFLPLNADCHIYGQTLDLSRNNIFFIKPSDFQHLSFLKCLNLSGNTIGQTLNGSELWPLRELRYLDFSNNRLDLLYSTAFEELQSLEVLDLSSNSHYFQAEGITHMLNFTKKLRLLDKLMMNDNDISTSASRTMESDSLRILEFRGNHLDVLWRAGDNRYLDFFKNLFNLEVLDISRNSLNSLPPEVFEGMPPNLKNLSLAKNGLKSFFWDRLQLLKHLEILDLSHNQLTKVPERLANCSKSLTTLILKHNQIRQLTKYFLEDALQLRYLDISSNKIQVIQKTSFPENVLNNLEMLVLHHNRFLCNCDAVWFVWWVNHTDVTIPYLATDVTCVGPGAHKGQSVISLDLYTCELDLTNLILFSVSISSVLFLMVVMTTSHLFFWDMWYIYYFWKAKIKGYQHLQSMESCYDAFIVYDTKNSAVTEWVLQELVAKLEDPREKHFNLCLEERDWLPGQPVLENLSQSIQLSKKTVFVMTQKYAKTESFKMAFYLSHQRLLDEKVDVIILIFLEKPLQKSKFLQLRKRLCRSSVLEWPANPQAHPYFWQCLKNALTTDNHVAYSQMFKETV
# Protocol: Figure Legend: Female BALB/c mice were dosed by oral gavage with Vehicle alone (0.5% aqueous methyl-cellulose) or compound formulated in Vehicle at 33 mg/kg, 100 mg/kg or 300 mg/kg. […] (FIG. 1A).
# Short-term in vivo (STIV) assay: To assess compound potency in vivo against mouse TLR7, a short-term in vivo (STIV) assay was utilized. Briefly, mice were orally dosed with compounds and at various time points afterwards were injected subcutaneously with agonist R848 to stimulate TLR7. The plasma IL-6 level following R848 stimulation was then measured by ELISA to assess compound potency and duration-of-action.
# Short-term in vivo (STIV) assay. Six to eight week old female BALB/c mice (Jackson Labs, Bar Harbor, Me.) were dosed by oral gavage in 200 ul volume with antagonist compounds formulated in 0.5% aqueous methyl-cellulose (Sigma, St. Louis, Mo.). At various time points afterwards, mice were injected subcutaneously (s.c.) in 100 ul volume with 15 ug R848 (Resiquimod; GLSynthesis, Worcester, Mass.) to stimulate TLR7.
# Human TLR7/8 = experiment: Human PBMC cell-based assay, TLR7/8 stimulus (RNA-Ig), cytokine ELISA
# Procedure, shortened: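 Healthy-donor human PBMC, 2×10^5 cells/well (1×10^5 in later assay), pre-treated 30 min with compound (0.1% DMSO). Stimulated 20 h at 37 °C with RNA-Ig: 26-mer U1 snRNA stem loop IV phosphorothioate RNA at 2.5 μM plus anti-ssDNA antibody (1:25 or 1 ug/ml). Supernatant cytokines by ELISA.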
# [1] = HEK-293 assay format, read-out: HEK/hTLR8 IC50
# [2] = primary human PBMC assay, TLR7/8 potency; ligand not given; read-out: Human PBMCs IC50
structure (smiles),measurement,setting,value
C[C@@H]1CN(c2ccc(C#N)c3ncccc23)C[C@H](CN2CCCC2)O1 [ER-886507],IC50,human TLR8; [1],182 nM
CC1CCCCC1NC[C@H]1CN(c2ccc(C#N)c3ncccc23)C[C@@H](C)O1 (stereo partly shown) [ER-887539],IC50,human TLR8; [1],0.5 nM
C[C@@H]1CN(c2ccc(C#N)c3ncccc23)C[C@H](CF)O1 [ER-885621],IC50,human TLR8; [1],25 nM
C[C@@H]1CN(c2ccc(C#N)c3ncccc23)C[C@H](C(=O)CCc2ccccc2)O1 [ER-886629],IC50,human TLR8; [1],5 nM
C[C@@H]1CN(c2ccc(C#N)c3ncccc23)C[C@H](CNCc2ccccc2)O1 [ER-886509],IC50,"human TLR8; HEK/hTLR8 IC50, HEK-293 assay format",119 nM
CC1CN(c2ccc(C#N)c3ncccc23)CC(C(=O)N2CC3(CCNC3)C2)O1 (stereo not shown) [ER-899017],% Suppression vs. Vehicle,"mouse TLR7; 6 h, 33 mg/kg",34%
same,% Suppression vs. Vehicle,"mouse TLR7; 13 h, 33 mg/kg",0%
same,% Suppression vs. Vehicle,"mouse TLR7; 13 h, 100 mg/kg",0%
same,% Suppression vs. Vehicle,"mouse TLR7; 13 h, 300 mg/kg",10%
same,% Suppression vs. Vehicle,"mouse TLR7; 24 h, 100 mg/kg",0%
same,% Suppression vs. Vehicle,"mouse TLR7; 24 h, 300 mg/kg",0%
same,IC50,Human TLR7/8; [2],4 nM
CC1CN(c2ccc(C#N)c3ncccc23)CC(C(=O)NC2CCCNCC2)O1 (stereo not shown) [ER-899417],% Suppression vs. Vehicle,"mouse TLR7; 6 h, 100 mg/kg",71%
same,% Suppression vs. Vehicle,"mouse TLR7; 13 h, 100 mg/kg",0%
same,IC50,Human TLR7/8; [2],1 nM
CC1CN(c2ccc(C#N)c3ncccc23)CC(C(=O)NC2CNCC2F)O1 (stereo not shown) [ER-899476],% Suppression vs. Vehicle,"mouse TLR7; 6 h, 100 mg/kg",99%
same,% Suppression vs. Vehicle,"mouse TLR7; 13 h, 100 mg/kg",65%
same,IC50,"Human TLR7/8; read-out: Human PBMCs IC50; primary human PBMC assay, TLR7/8 potency; ligand not given",3 nM
CC1CN(c2ccc(C#N)c3ncccc23)CC(CN2CCC(NC(=O)c3ccccc3)CC2)O1 (stereo not shown) [ER-888321],% Suppression vs. Vehicle,"mouse TLR7; 3 h, 33 mg/kg",98%
same,% Suppression vs. Vehicle,"mouse TLR7; 3 h, 100 mg/kg",100%
same,% Suppression vs. Vehicle,"mouse TLR7; 6 h, 33 mg/kg",86%
same,% Suppression vs. Vehicle,"mouse TLR7; 6 h, 100 mg/kg",100%
same,% Suppression vs. Vehicle,"mouse TLR7; 13 h, 33 mg/kg",87%
same,% Suppression vs. Vehicle,"mouse TLR7; 13 h, 100 mg/kg",100%
same,% Suppression vs. Vehicle,"mouse TLR7; 19 h, 33 mg/kg",59%
same,% Suppression vs. Vehicle,"mouse TLR7; 19 h, 100 mg/kg",59%
same,IC50,Human TLR7/8; [2],22 nM
CC[C@H]1CN(C[C@H]2CN(c3ccc(C#N)c4ncccc34)C[C@@H](C)O2)CCN1C [ER-890964],% Suppression vs. Vehicle,"mouse TLR7; 3 h, 33 mg/kg",96%
same,% Suppression vs. Vehicle,"mouse TLR7; 19 h, 33 mg/kg",0%
same,IC50,Human TLR7/8; [2],1 nM
C[C@@H]1CN(c2ccc(C#N)c3ncccc23)C[C@H](CN2CCN(C)[C@H](C)C2)O1 [ER-890346],% Suppression vs. Vehicle,"mouse TLR7; 3 h, 33 mg/kg",99%
same,% Suppression vs. Vehicle,"mouse TLR7; 19 h, 11 mg/kg",0%
same,% Suppression vs. Vehicle,"mouse TLR7; 19 h, 33 mg/kg",20%
same,IC50,Human TLR7/8; [2],6 nM
CC1CN(c2ccc(C#N)c3ncccc23)CC(C(=O)NC2CCCN(C)C2)O1 (stereo not shown) [ER-899688],% Suppression vs. Vehicle,"mouse TLR7; 6 h, 100 mg/kg",10%
same,% Suppression vs. Vehicle,"mouse TLR7; 13 h, 100 mg/kg",96%
same,IC50,Human TLR7/8; [2],11 nM
CC1CN(c2ccc(C#N)c3ncccc23)CC(C(=O)NCC(C)(C)N(C)C)O1 (stereo not shown) [ER-898566],% Suppression vs. Vehicle,"mouse TLR7; 6 h, 33 mg/kg",100%
same,% Suppression vs. Vehicle,"mouse TLR7; 6 h, 100 mg/kg",99%
same,% Suppression vs. Vehicle,"mouse TLR7; 13 h, 33 mg/kg",73%
same,% Suppression vs. Vehicle,"mouse TLR7; 13 h, 100 mg/kg",86%
same,% Suppression vs. Vehicle,"mouse TLR7; 13 h, 300 mg/kg",98%
same,% Suppression vs. Vehicle,"mouse TLR7; 24 h, 33 mg/kg",0%
same,% Suppression vs. Vehicle,"mouse TLR7; 24 h, 100 mg/kg",30%
same,% Suppression vs. Vehicle,"mouse TLR7; 24 h, 300 mg/kg",100%
same,IC50,Human TLR7/8; [2],11 nM
C[C@@H]1CN(c2ccc(C#N)c3ncccc23)C[C@H](C(=O)N[C@@H]2CCCN(C)C2)O1 [ER-899337],% Suppression vs. Vehicle,"mouse TLR7; 6 h, 100 mg/kg",99%
same,% Suppression vs. Vehicle,"mouse TLR7; 13 h, 100 mg/kg",30%
same,IC50,Human TLR7/8; [2],2 nM
